From patent US9701664B2, “Fused 1,4-dihydrodioxin derivatives as inhibitors of heat shock transcription factor 1” (Cancer Research Technology Limited, priority 2013, dated 2017)

What was measured:
[1] = test system: U2OS cells; experiment: Titre Blue cell viability assay, U2OS cells; format: cell-based; conditions: Homo sapiens, U2OS
[2] = test system: HSP72 in U2OS cells; experiment: Cell-based ELISA (Cellisa) assay, U2OS cells: inhibition of 17-AAG-induced HSP72; conditions: Homo sapiens; U2OS cells (Examples 1-168)
Description: U2OS cells (5-8×10^4 cells/mL) or SK-OV-3 cells (5-8×10^4 cells/mL) were seeded into 96-well plates and incubated at 37° C. for 48 h. Compounds were then added at a range of concentrations and incubated for 1 h before addition of 17-AAG (250 nM). Cells were then incubated for 18 h. The medium was removed washed 2× with PBS and cells were then fixed with fixing solution (4% paraformaldehyde, 0.3% TritonX-100 in PBS) for 30 min at 4° C. The plates were then washed 2× with PBS before blocking with 5% milk for 30 min at 37° C. After washing the plates 4× with 0.1% Tween-20/deionised water, HSP72 antibody (SPA-810, Enzo Life) was added for 1.5 h at 37° C. Following 4× washes, the plates were incubated with europium-labelled anti-mouse antibody (0.6 ug/ml) in Delfia assay buffer (Perkin Elmer) for 1 h at 37° C. After washing the plates, Delfia enhancement solution was added, shaken for 10 min before reading in the Envision plate reader (Perkin-Elmer) with excitation at 340 nm and emission at 615 nm. The plates were washed again before protein determination using the bicinchoninic acid assay (BCA assay, Pierce Biotechnology). The europium counts were normalised for the amount of protein in each well. The 50% inhibitory concentration value of the compound was then calculated.

Structure (SMILES) | IC50 [1] | IC50 [2]
Cc1ccc(NC(=O)c2ccc3c(c2)OCCO3)cc1NC(=O)c1ccc2nc(C(F)(F)F)[nH]c2c1 [Example 90, N-(5-(2,3-dihydrobenzo[b][1,4]dioxine-6-carboxamido)-2-methylphenyl)-2-(trifluoromethyl)-1H-benzo[d]imidazole-6-carboxamide] | 1360 nM | –
Cc1ccc(NC(=O)c2ccc3c(c2)OCCO3)cc1NC(=O)c1ccnc(-n2cncn2)c1 [Example 96, N-(5-(2,3-dihydrobenzo[b][1,4]dioxine-6-carboxamido)-2-methylphenyl)-2-(1H-1,2,4-triazol-1-yl)isonicotinamide] | 1350 nM | 4440 nM
Cc1ccc(NC(=O)c2ccc3c(c2)OCCO3)cc1NC(=O)c1ccc2nc(OCCCNC(=O)OC(C)(C)C)ccc2c1 [Example 35, tert-butyl (3-((6-((5-(2,3-dihydrobenzo[b][1,4]dioxine-6-carboxamido)-2-methylphenyl)carbamoyl)quinolin-2-yl)oxy)propyl)carbamate] | 432 nM | 867 nM
Cc1ccc(NC(=O)c2ccc3c(c2)OCCO3)cc1NC(=O)c1ccc2nc(N(C)CCN(C)C)ccc2c1 [Example 58, N-(5-(2,3-dihydrobenzo[b][1,4]dioxine-6-carboxamido)-2-methylphenyl)-2-((2-(dimethylamino)ethyl)(methyl)amino)quinoline-6-carboxamide] | 33 nM | 15 nM
Cc1ccc(NC(=O)c2ccc3c(c2)OCCO3)cc1NC(=O)c1ccc2c(c1)CCC(C)N2 (stereo not shown) [Example 152, N-(5-(2,3-dihydrobenzo[b][1,4]dioxine-6-carboxamido)-2-methylphenyl)-2-methyl-1,2,3,4-tetrahydroquinoline-6-carboxamide] | 153 nM | 105 nM
Cc1ccc(NC(=O)c2ccc3c(c2)OCCO3)cc1NC(=O)c1ccc2c(ccn2C)c1 [Example 16, N-(5-(2,3-dihydrobenzo[b][1,4]dioxine-6-carboxamido)-2-methylphenyl)-1-methyl-1H-indole-5-carboxamide] | 31 nM | 94 nM
Cc1ccc(NC(=O)c2ccc3c(c2)OCCO3)cc1NC(=O)c1ccc2c(c1)COC2 [Example 15, N-(3-(1,3-dihydroisobenzofuran-5-carboxamido)-4-methylphenyl)-2,3-dihydrobenzo[b][1,4]dioxine-6-carboxamide] | 75 nM | 76 nM
Cc1ccc(NC(=O)c2ccc3c(c2)OCCO3)cc1NC(=O)c1ccc2c(c1)CCC(=O)N2 [Example 103, N-(5-(2,3-dihydrobenzo[b][1,4]dioxine-6-carboxamido)-2-methylphenyl)-2-oxo-1,2,3,4-tetrahydroquinoline-6-carboxamide] | 74 nM | 60 nM
Cc1ccc(NC(=O)c2ccc3c(c2)OCCO3)cc1NC(=O)c1ccc2nc(CCN3CCOCC3)ccc2c1 [Example 144, N-(5-(2,3-dihydrobenzo[b][1,4]dioxine-6-carboxamido)-2-methylphenyl)-2-(2-morpholinoethyl)quinoline-6-carboxamide] | 80 nM | 60 nM
Cc1ccc(NC(=O)c2ccc3c(c2)OCCO3)cc1NC(=O)c1ccc2nccnc2c1 [Example 36, N-(5-(2,3-dihydrobenzo[b][1,4]dioxine-6-carboxamido)-2-methylphenyl)quinoxaline-6-carboxamide] | 567 nM | 1150 nM
Cc1ccc2cc(C(=O)Nc3cccc(NC(=O)c4ccc5c(c4)OCCO5)c3)ccc2n1 [Example 113, N-(3-(2,3-dihydrobenzo[b][1,4]dioxine-6-carboxamido)phenyl)-2-methylquinoline-6-carboxamide] | 117 nM | 160 nM
Cc1ccc(NC(=O)c2ccc3c(c2)OCCO3)cc1NC(=O)c1ccc2nc(OCCNC(=O)OC(C)(C)C)ccc2c1 [Example 21, tert-butyl (2-((6-((5-(2,3-dihydrobenzo[b][1,4]dioxine-6-carboxamido)-2-methylphenyl)carbamoyl)quinolin-2-yl)oxy)ethyl)carbamate] | 84 nM | 141 nM
Cc1ccc(NC(=O)c2ccc3c(c2)OCCO3)cc1NC(=O)c1ccc2cnc(OCCN3CCCC3)cc2c1 [Example 156, N-(5-(2,3-dihydrobenzo[b][1,4]dioxine-6-carboxamido)-2-methylphenyl)-3-(2-(pyrrolidin-1-yl)ethoxy)isoquinoline-6-carboxamide] | 79 nM | 161 nM
Cc1ccc(NC(=O)c2ccc3c(c2)OCO3)cc1NC(=O)c1ccc2ncccc2c1 [Example 131, N-(5-(benzo[d][1,3]dioxole-5-carboxamido)-2-methylphenyl)quinoline-6-carboxamide] | 74 nM | 171 nM
Cc1ccc(NC(=O)c2ccc3c(c2)OCCO3)cc1NC(=O)c1ccc2[nH]c(=O)ccc2c1 [Example 48, N-(5-(2,3-dihydrobenzo[b][1,4]dioxine-6-carboxamido)-2-methylphenyl)-2-oxo-1,2-dihydroquinoline-6-carboxamide] | 172 nM | 141 nM
Cc1ccc(NC(=O)c2ccc3c(c2)OCCO3)cc1NC(=O)c1ccc(O)cc1 [Example 93, N-(3-(4-hydroxybenzamido)-4-methylphenyl)-2,3-dihydrobenzo[b][1,4]dioxine-6-carboxamide] | 798 nM | 2460 nM
COc1ccc(C(=O)Nc2cc(NC(=O)c3ccc4c(c3)OCCO4)ccc2C)cc1Cl [Example 28, N-(3-(3-chloro-4-methoxybenzamido)-4-methylphenyl)-2,3-dihydrobenzo[b][1,4]dioxine-6-carboxamide] | 415 nM | 416 nM
Cc1ccc(NC(=O)c2ccc3c(c2)OCCO3)cc1NC(=O)c1ccc(Nc2cccc(OC3CCN(C)CC3)c2)nc1 [Example 121, N-(5-(2,3-dihydrobenzo[b][1,4]dioxine-6-carboxamido)-2-methylphenyl)-6-(3-(1-methylpiperidin-4-yloxy)phenylamino)nicotinamide] | 338 nM | –
Cc1ccc(NC(=O)c2ccc3c(c2)OCCO3)cc1NC(=O)c1ccc2c(c1)CCO2 [Example 6, N-(3-(2,3-dihydrobenzofuran-5-carboxamido)-4-methylphenyl)-2,3-dihydrobenzo[b][1,4]dioxine-6-carboxamide] | 77 nM | 17 nM
COCCOc1cc(OC)c2cc(C(=O)Nc3cc(NC(=O)c4ccc5c(c4)OCCO5)ccc3C)ccc2n1 [Example 22, N-(5-(2,3-dihydrobenzo[b][1,4]dioxine-6-carboxamido)-2-methylphenyl)-4-methoxy-2-(2-methoxyethoxy)quinoline-6-carboxamide] | – | 160 nM
Cc1ccc(NC(=O)c2ccc3c(c2)OCCO3)cc1NC(=O)c1ccc(Nc2ccccc2)nc1 [Example 94, N-(5-(2,3-dihydrobenzo[b][1,4]dioxine-6-carboxamido)-2-methylphenyl)-6-(phenylamino)nicotinamide] | – | 73 nM
Cc1ccc(NC(=O)c2ccc3c(c2)OCCO3)cc1NC(=O)c1ccc2c(c1)CCCCN2 [Example 82, N-(5-(2,3-dihydrobenzo[b][1,4]dioxine-6-carboxamido)-2-methylphenyl)-2,3,4,5-tetrahydro-1H-benzo[b]azepine-7-carboxamide] | – | 156 nM
Cc1ccc(NC(=O)c2ccc3c(c2)OCCO3)cc1NC(=O)c1ccc2ccncc2c1 [Example 2, N-(5-(2,3-dihydrobenzo[b][1,4]dioxine-6-carboxamido)-2-methylphenyl)isoquinoline-7-carboxamide] | – | 7 nM
Cc1ccc(NC(=O)c2ccc3c(c2)OCCO3)cc1NC(=O)c1ccc2c(c1)CCN(C(=O)OC(C)(C)C)C2 [Example 31, tert-butyl 6-((5-(2,3-dihydrobenzo[b][1,4]dioxine-6-carboxamido)-2-methylphenyl)carbamoyl)-3,4-dihydroisoquinoline-2(1H)-carboxylate] | – | 545 nM
Cc1ccc(NC(=O)c2ccc3c(c2)OCCO3)cc1NC(=O)c1ccc(-c2ccccc2)nc1 [Example 37, N-(5-(2,3-dihydrobenzo[b][1,4]dioxine-6-carboxamido)-2-methylphenyl)-6-phenylnicotinamide] | – | 1960 nM
Cc1ccc(NC(=O)c2ccc3c(c2)OCCO3)cc1NC(=O)c1ccc2nc(N3CCN(C)CC3)ccc2c1 [Example 74, N-(5-(2,3-dihydrobenzo[b][1,4]dioxine-6-carboxamido)-2-methylphenyl)-2-(4-methylpiperazin-1-yl)quinoline-6-carboxamide] | – | 232 nM
Cc1ccc(NC(=O)c2ccc3c(c2)OCCO3)cc1NC(=O)c1ccc2ncsc2c1 [Example 114, N-(5-(2,3-dihydrobenzo[b][1,4]dioxine-6-carboxamido)-2-methylphenyl)benzo[d]thiazole-6-carboxamide] | – | 35 nM
Cc1ccc(NC(=O)c2ccc3c(c2)OCCO3)cc1NC(=O)c1ccc2c(ccc[n+]2[O-])c1 [Example 23, 6-((5-(2,3-dihydrobenzo[b][1,4]dioxine-6-carboxamido)-2-methylphenyl)carbamoyl)quinoline 1-oxide] | – | 161 nM
Cc1ccc(NC(=O)c2ccc3c(c2)OCCO3)cc1NC(=O)c1ccc2nc(N3CCOCC3)ccc2c1 [Example 32, N-(5-(2,3-dihydrobenzo[b][1,4]dioxine-6-carboxamido)-2-methylphenyl)-2-morpholinoquinoline-6-carboxamide] | – | 665 nM
